In assay [1] the target is T1, BCAT1 enzyme (Homo sapiens, UniProt P54687).
T1 construct: purchased Sino Biological ME17NO0265
T1 sequence (P54687 1-386): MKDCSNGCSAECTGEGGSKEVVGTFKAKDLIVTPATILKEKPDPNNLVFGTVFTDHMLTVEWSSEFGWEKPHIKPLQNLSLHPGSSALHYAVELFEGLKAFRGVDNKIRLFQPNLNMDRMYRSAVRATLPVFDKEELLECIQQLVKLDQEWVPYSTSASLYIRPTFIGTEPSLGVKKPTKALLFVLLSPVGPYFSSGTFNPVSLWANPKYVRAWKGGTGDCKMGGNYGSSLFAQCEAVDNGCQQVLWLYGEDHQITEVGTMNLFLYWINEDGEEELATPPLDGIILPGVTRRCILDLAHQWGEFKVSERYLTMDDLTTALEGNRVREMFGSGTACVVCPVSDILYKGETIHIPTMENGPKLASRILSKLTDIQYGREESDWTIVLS
In words: BCAT1 enzyme inhibition assay (LeuDH-coupled, NADH fluorescence). Format: biochemical. How it is done: The inhibitory activity of the synthesized compounds against BCAT1 enzyme was screened by a known method, where leucine dehydrogenase (LeuDH) was utilized to catalyze the nicotinamide adenine dinucleotide (NADH)-dependent reduction of the BCAA α-ketoisocaproate (α-KIC) to leucine and NADH consumption was measured through fluorescence and luminescence readouts to assess BCAT1 activity.
The compounds to be tested or PBS was added to a 384-well plate, followed by the addition of assay buffer (50 mM ammonium sulfate, 1 mM EDTA, 2 mM DTT, 0.01% BSA, 0.5 μM PLP, 50 mM HEPES buffer (pH 7.4)), 0.01 U LeuDH enzyme (#E0217, Nanjing Duly Biotechnology Co., Ltd., Nanjing, China) and 15 ng BCAT1 enzyme (#ME17NO0265, Sino Biological, Beijing, China). Subsequently, 40 μM α-KG, 100 μM Leucine and 10 μM NADH substrate mixture were added to initiate the reaction. Fluorescence changes in NADH were dynamically monitored using the Spark cyto (Tecan, Männedorf, Switzerland). The rate of NADH fluorescence decay was calculated to assess enzyme activity.

Assay [2] relates to NCI-H1975 cells. The assay is described as follows: Cell proliferation assay (SRB), NCI-H1975 cells. In kind it is cell-based. The settings on record: Homo sapiens, proliferation inhibition, 120 h, mean ± SD (n = 3). An excerpt: (§1) Subsequently, we evaluated the in vitro anti-proliferative activity of compounds 1, 2, 4 and 7 on the proliferation of both 67R and NCI-H1975 cells, using gabapentin as positive controls (Figure 3 and Table 2). These four compounds represented the potent BCAT1 inhibitors in the above enzymatic assay.
(§2) Cell culture and chemical reagents: Human NSCLC NCI-H1975 cells were purchased from American Type Culture Collection (ATCC, Manassas, VA, USA) and cultured in RPMI 1640 medium with 10% FBS in a cell incubator (37 °C, 5% CO2). ASK120067-resistant cells (67R) were constructed, cultured, and authenticated as described previously. Gabapentin (#T0702) was purchased from TargetMol (Boston, MA, USA).
(§3) A sulforodamine B (SRB) colorimetric assay was employed to detect the inhibitory effect of compounds on cell proliferation. Cells in the logarithmic growth phase were seeded into 96-well plates and cultured overnight. After incubation with the indicated compounds for 120 h, the culture medium was discarded. Then, 100 μL of 10% pre-cooled trichloroacetic acid (TCA) was added to each well to fix the cells at 4 °C for 1 h. The wells were then washed five times with distilled water. After drying, 100 μL of SRB dye (4 mg/mL SRB dissolved in 1% glacial acetic acid) was added to each well, and the cells were stained for 15 min at room temperature. After washing with 1% glacial acetic acid for five times, the plate was dried again. To dissolve the dye, 150 μL of 10 mM Tris solution was added to each well. The optical density (OD) was measured at 560 nm using a multi-well VersaMax spectrophotometer (Molecular Devices, Sunnyvale, CA, USA). The relative inhibition rate of the compounds on cell proliferation was calculated using the following formula: Inhibition rate (%) = [1 − (A560treated/A560control)] × 100%. The IC50 values were determined from the dose–response curves using the logit method.

For assay [3], the system named is 67R cells. In words: Cell proliferation assay (SRB), ASK120067-resistant 67R cells. Format: cell-based, Human. The settings on record: 120 h, proliferation inhibition, mean ± SD (n = 3), cells with high BCAT1 expression.
Text: as §1, §2, §3

Assay [4] deals with BCAT1. More on the design: method as in PMID 39791161. To be noted: Figure 1; cited from earlier work.
Assay [5] has as its system hBCAT1. The arrangement: method as in PMID 39791161. The settings on record: Figure 1; cited from earlier work.

Bounds are passed on as bounds.

One may read the IC50 as the midpoint of a concentration-inhibition curve. `NC[C@@]1(CC(=O)O)C[C@H]2C=C[C@@H]1C2` (relative stereo) [2•p-TsOH, 2-((1S*,2R*,4S*)-2-(Aminomethyl)bicyclo[2.2.1]hept-5-en-2-yl)acetic acid]: the IC50 in assay [1] was 2040 ± 980 µM; in assay [2], 8990 ± 670 µM; in assay [3] (Homo sapiens) it was below 2000 µM; in assay [3], 2710 ± 330 µM.

In turn, `NC[C@]1(CC(=O)O)C[C@H]2C=C[C@@H]1C2` (relative stereo) [3•p-TsOH, 2-((1S*,2S*,4S*)-2-(Aminomethyl)bicyclo[2.2.1]hept-5-en-2-yl)acetic acid] came in with an IC50 in assay [1] of 3960 ± 2830 µM.

In assay [1], `NC[C@]1(CC(=O)O)C[C@H]2CCC[C@@H]1C2` (relative stereo) [5•HBr, 2-((1S*,5R*,6S*)-6-(Aminomethyl)bicyclo[3.2.1]octan-6-yl)acetic acid] returned an IC50 of 4200 ± 1840 µM.

With `NC[C@@]1(CC(=O)O)C[C@H]2CC=C[C@@H]1C2` (relative stereo) [7•p-TsOH, 2-((1S*,5S*,6R*)-6-(Aminomethyl)bicyclo[3.2.1]oct-3-en-6-yl)acetic acid], the IC50 is 780 ± 190 µM in assay [1], 7260 ± 730 µM in assay [2], below 2000 µM in assay [3] (Homo sapiens) and 1640 ± 490 µM in assay [3]. Also, in assay [1] (ratio of IC50 values versus WQQ-345), the “enhancement in BCAT1 enzymatic inhibitory activity compared to the parent compound WQQ-345” value was determined as 6 fold.

In assay [1], `NC[C@]1(CC(=O)O)C[C@H]2CCCC1CC2` (relative stereo) [8•HBr, 2-((1S*,6S*)-6-(Aminomethyl)bicyclo[3.2.2]nonan-6-yl)acetic acid] displayed a 50% inhibitory concentration (IC50) of 14500 ± 6390 µM.

Take `NC[C@@]1(CC(=O)O)C[C@H]2CC[C@@H]1C2` (relative stereo) [Compound 1, 2-((1R*,2R*,4S*)-2-(Aminomethyl)bicyclo[2.2.1]heptan-2-yl)acetic acid]: the values for the IC50 in assay [1], in assay [2] and in assay [3] (Homo sapiens) were 2040 ± 590 µM, 7820 ± 480 µM and 2600 ± 930 µM, respectively.

In turn, `NC[C@@]1(CC(=O)O)C[C@H]2CCC[C@@H]1C2` (relative stereo) [Compound 6, 2-((1S*,5R*,6R*)-6-(Aminomethyl)bicyclo[3.2.1]octan-6-yl)acetic acid] returned an IC50 in assay [1] of 1540 ± 470 µM.

Turning to `NCC1(CC(=O)O)CC2CCC1CC2` (stereo not drawn) [4•HBr, 2-((1R*,2S*,4R*)-2-(aminomethyl)bicyclo[2.2.2]octan-2-yl)acetic acid], the half-maximal inhibitory concentration (IC50) is 1710 ± 1000 µM in assay [1], 8080 ± 960 µM in assay [2] and 1380 ± 370 µM in assay [3] (Homo sapiens).

Regarding `Cc1ccccc1Oc1cc(-n2c(=O)cc(C(F)(F)F)[nH]c2=O)c2ccccc2c1Cl` [BAY-069], the IC50 in assay [4] was 0.031 µM.

Take `CC(=O)C(C)CCC(=O)O` (centres unmarked) [MOHA]: in assay [5], the IC50 was 1 to 10 µM.

Regarding `NC[C@]1(CC(=O)O)C[C@H]2CC[C@@H]1C2` [WQQ-345•HBr], the IC50 in assay [1] worked out at 4860 ± 1980 µM.

The Ki is the equilibrium dissociation constant of an inhibitor or competing ligand from its target. Turning to `NCC1(CC(=O)O)CCCCC1` [gabapentin, reference compound], the Ki in assay [5] was 3500 µM. The IC50 is 5070 ± 1060 µM in assay [1], above 10000 µM in assay [2] and 3530 ± 220 µM in assay [3] (Homo sapiens).

The values above are taken from paper PMC11858294, “Design, Synthesis and Biological Activity Study of γ-Aminobutyric Acid (GABA) Derivatives Containing Bridged Bicyclic Skeletons as BCAT1 Inhibitors” (Molecules, 2025).
